The results in this text go back to patent US10913753B2, “Thienopyridine carboxamides as ubiquitin-specific protease inhibitors” (FORMA Therapeutics, Inc., priority 2016, dated 2021).

Structures are written as SMILES. pIC50: −log10 of the molar value.

The target in one assay is USP25 (Homo sapiens (Human), UniProt Q9UHP3). Put plainly: Ubiquitin-Rhodamine 110 Assay for USP25 Activity. It counts as biochemical. In short, it runs like this: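 USP25-His6 (75 pM) preincubated 30 min with compound (25 μM to 1.3 nM, 10-point 3-fold), then Ub-Rh110 added; 45 min at room temperature in pH 8.0 Tris buffer with BME, BGG, Triton X-100, stopped with 10 mM citric acid. Fluorescence 485/535 nm; % inhibition vs no-enzyme and DMSO controls, IC50 by 4-parameter logistic fit.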

The target in the next assay is USP28 (Homo sapiens (Human), UniProt Q96RU2). Put plainly: Ubiquitin-Rhodamine 110 Assay for USP28 Activity. It counts as biochemical. In short, it runs like this:
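Single-point screen at 10 μM, 90 min; follow-up dose-response (25 μM top, 3-fold) with 75 pM USP28 (1-1077)-TEV-6*His, 30 min compound preincubation, Ub-Rh110 substrate for 20 min at room temperature, citric acid stop. Buffer pH 8.0 Tris; fluorescence 485/535 nm; IC50 by 4-parameter logistic fit of % inhibition.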

In general, pIC50 refers to the IC50 on a negative log10 scale, so that one unit is a factor of ten.

USP25, sequence (Q9UHP3 whole entry): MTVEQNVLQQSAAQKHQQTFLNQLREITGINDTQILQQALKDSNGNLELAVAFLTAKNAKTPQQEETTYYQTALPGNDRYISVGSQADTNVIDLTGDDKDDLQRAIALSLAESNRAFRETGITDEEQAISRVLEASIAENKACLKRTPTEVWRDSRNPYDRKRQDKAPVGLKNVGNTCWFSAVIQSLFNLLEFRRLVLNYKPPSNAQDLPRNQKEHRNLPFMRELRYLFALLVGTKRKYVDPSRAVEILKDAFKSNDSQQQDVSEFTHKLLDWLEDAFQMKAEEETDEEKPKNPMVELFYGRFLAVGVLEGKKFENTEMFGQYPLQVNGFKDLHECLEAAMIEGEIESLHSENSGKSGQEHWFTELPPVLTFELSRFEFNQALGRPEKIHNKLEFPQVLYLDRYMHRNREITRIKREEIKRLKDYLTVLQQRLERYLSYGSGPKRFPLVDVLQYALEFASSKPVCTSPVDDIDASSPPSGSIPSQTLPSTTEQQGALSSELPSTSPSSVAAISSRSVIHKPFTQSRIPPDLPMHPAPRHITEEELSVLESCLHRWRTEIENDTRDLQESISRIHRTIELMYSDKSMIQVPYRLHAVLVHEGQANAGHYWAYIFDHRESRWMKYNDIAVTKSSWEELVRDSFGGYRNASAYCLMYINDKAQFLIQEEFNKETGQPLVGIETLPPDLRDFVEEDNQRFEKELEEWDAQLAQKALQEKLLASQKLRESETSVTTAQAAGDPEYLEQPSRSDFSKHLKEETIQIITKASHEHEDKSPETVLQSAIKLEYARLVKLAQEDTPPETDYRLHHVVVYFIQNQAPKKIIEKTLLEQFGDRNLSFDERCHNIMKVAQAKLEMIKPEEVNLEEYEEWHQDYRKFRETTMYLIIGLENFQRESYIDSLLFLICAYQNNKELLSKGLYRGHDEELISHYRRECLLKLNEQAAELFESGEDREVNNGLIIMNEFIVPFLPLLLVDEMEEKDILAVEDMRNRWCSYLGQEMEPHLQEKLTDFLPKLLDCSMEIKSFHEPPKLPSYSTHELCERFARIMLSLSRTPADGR
USP28, sequence (Q96RU2 whole entry): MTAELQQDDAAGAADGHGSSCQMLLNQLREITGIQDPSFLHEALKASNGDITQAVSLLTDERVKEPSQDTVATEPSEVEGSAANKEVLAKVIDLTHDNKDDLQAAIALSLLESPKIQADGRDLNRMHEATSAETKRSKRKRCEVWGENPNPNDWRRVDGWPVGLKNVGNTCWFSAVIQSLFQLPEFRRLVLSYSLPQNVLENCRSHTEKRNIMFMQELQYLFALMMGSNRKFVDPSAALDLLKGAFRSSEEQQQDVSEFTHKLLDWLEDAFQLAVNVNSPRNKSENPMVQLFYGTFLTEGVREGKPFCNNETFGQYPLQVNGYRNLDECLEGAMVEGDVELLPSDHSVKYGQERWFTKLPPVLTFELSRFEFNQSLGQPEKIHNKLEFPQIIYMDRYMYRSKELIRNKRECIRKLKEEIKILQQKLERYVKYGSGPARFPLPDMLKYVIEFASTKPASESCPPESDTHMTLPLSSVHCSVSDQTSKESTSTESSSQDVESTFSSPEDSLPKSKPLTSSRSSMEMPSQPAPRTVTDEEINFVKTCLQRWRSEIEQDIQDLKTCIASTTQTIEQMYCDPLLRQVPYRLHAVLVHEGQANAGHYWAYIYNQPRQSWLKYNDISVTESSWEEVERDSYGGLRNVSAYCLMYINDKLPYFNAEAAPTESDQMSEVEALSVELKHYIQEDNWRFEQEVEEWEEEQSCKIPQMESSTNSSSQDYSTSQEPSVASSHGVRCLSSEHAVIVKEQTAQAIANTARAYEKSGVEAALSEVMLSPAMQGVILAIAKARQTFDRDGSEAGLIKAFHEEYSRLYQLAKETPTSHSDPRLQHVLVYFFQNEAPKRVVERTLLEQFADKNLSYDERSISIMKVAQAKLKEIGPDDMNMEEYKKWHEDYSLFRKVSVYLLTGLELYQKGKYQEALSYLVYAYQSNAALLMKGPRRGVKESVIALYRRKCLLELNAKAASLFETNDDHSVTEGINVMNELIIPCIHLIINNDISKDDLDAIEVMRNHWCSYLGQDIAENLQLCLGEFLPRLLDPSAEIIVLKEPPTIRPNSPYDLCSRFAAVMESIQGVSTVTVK

`Cc1nc2sc(C(=O)NC[C@H](C)c3cc(F)c(N4CC5CCC(C4)N5)cc3F)c(N)c2cc1F` (single isomer, unassigned) [Example I-112]: the values for the pIC50 at USP25 and against USP28 were 5.00 to 5.70 and 5.70 to 6.70, respectively.
Take `C[C@@H](O)c1ccc2c(N)c(C(=O)NCCc3ccc(N4CCNCC4)cc3)sc2n1` (single isomer, unassigned) [Example I-222]: the pIC50 at USP25 and on USP28 was 5.70 to 6.70 throughout.
With `Cc1ccc2c(N)c(C(=O)NCCc3ccc(N4CCC5(CCCNC5)C4)cc3)sc2n1` (single isomer, unassigned) [Example I-216], the pIC50 against USP25 and against USP28 was 5.70 to 6.70 each time.
Turning to `Cc1ccc2c(N)c(C(=O)NCCc3ccc([C@H]4CCNC4)cc3)sc2n1` (single isomer, unassigned) [Example I-180], the pIC50 on USP25 is 5.70 to 6.70; at USP28, greater than 6.70.
For `Cc1ccc2c(N)c(C(=O)NCCc3ccc(N4CCN(C5CCC5)CC4)cc3)sc2n1` [Example I-75] the same measures were 5.70 to 6.70 and 5.70 to 6.70.
The like results for `Cc1ccc2c(N)c(C(=O)NCCc3cnc(N4CCNCC4)c(Cl)c3)sc2n1` [Example I-215, 3-Amino-N-(2-(5-chloro-6-(piperazin-1-yl)pyridin-3-yl)ethyl)-6-methylthieno[2,3-b]pyridine-2-carboxamide] were, in that order, 5.00 to 5.70 and 5.70 to 6.70.
In the case of `Cc1ccc2c(N)c(C(=O)NCCc3ccc(C4CC5CCC(C4)N5)cc3)sc2n1` (single isomer, unassigned) [Example I-171, N-(4-(8-azabicyclo[3.2.1]octan-3-yl)phenethyl)-3-amino-6-methylthieno[2,3-b]pyridine-2-carboxamide], the pIC50 against USP25 and on USP28 was 5.70 to 6.70 throughout.
With `Cc1ccc2c(N)c(C(=O)NCCc3ccc4c(c3)C[C@H](C(=O)O)C4)sc2n1` [Example I-176], the negative-log IC50 (pIC50) against USP25 and on USP28 was 5.70 to 6.70 in each case.
Turning to `Cc1ccc2c(N)c(C(=O)NCCc3ccc(N4CCNCC4)c(F)c3F)sc2n1` [Example I-84], the pIC50 against USP25 and against USP28 was 5.70 to 6.70 in each case.
`Nc1cc(C(F)F)c2c(N)c(C(=O)NCCc3ccc(N4CCNCC4)cc3)sc2n1` [Compound I-16]: the pIC50 at USP25 was 5.70 to 6.70; against USP28, greater than 6.70.
For `Cc1ccc2c(N)c(C(=O)NCCc3ccc(-n4ncc5c4CNC5)cc3F)sc2n1` [Compound I-41] the same measures were 5.70 to 6.70 and greater than 6.70.
The like results for `Cc1ccc2c(N)c(C(=O)NCCc3ccc(N4C5CNCC4C5)cc3)sc2n1` [Compound I-64] were, in that order, greater than 6.70 and greater than 6.70.
For `Cc1ccc2c(N)c(C(=O)NC[C@H](C)c3ccc(N4CC5CCC(C4)N5)c(F)c3)sc2n1` (single isomer, unassigned) [Example I-106], the negative-log IC50 (pIC50) against USP25 was 5.00 to 5.70; against USP28, 5.70 to 6.70.
The like results for `COc1cc(N2CCNCC2)ccc1CCNC(=O)c1sc2nc(C)ccc2c1N` [Compound I-2] were, in that order, greater than 6.70 and greater than 6.70.
For `Cc1ccc2c(N)c(C(=O)NCCc3ccc(N4CCN[C@H](CO)C4)cc3)sc2n1` [Example I-86] the same measures were 5.70 to 6.70 and 5.70 to 6.70.
For `Cc1ccc2c(N)c(C(=O)NCCc3ccc(N4CCNCC4)c(-c4ccccc4)c3)sc2n1` [Compound I-23] the same measures were 5.00 to 5.70 and 5.70 to 6.70.
Regarding `Cc1ccc2c(N)c(C(=O)NCCc3cc(F)c(N4CC5CCC(C4)N5)cc3F)sc2n1` [Compound I-34], the pIC50 against USP25 is 5.70 to 6.70; at USP28 it was greater than 6.70.
For `Cc1ccc2c(N)c(C(=O)NCCc3ccc(N4CC5CCC(C4)N5)cc3Cl)sc2n1` [Compound I-21] the same measures were greater than 6.70 and greater than 6.70.
For `Cc1ccc2c(N)c(C(=O)NCCc3ccc(N4CCNCC4)cc3F)sc2n1` [Compound I-5] the same measures were 5.70 to 6.70 and 5.70 to 6.70.
For `Cc1ccc2c(N)c(C(=O)NCCc3cc(F)c(N4C[C@@H]5CCN[C@@H]5C4)cc3F)sc2n1` [Example I-95] the same measures were 5.70 to 6.70 and greater than 6.70.
Turning to `Cc1ccc2c(N)c(C(=O)NC[C@@H](C)c3ccc(N4CCNCC4)cc3)sc2n1` [Example I-203], the pIC50 at USP25 is 5.00 to 5.70; at USP28, 5.70 to 6.70.
The like results for `Nc1c(C(=O)NCCc2ccc(N3CCNCC3)cc2)sc2nc(CO)ccc12` [Compound I-43] were, in that order, 5.00 to 5.70 and 5.70 to 6.70.
As to `Cc1ccc2c(N)c(C(=O)NCCc3cc(F)c(N4CCN[C@@H](C)C4)cc3F)sc2n1` [Compound I-210], the pIC50 against USP25 is 5.00 to 5.70; at USP28, 5.70 to 6.70.
